Data: PubChem BioAssay AID1963961 (Molecular Pharmacology Branch, DTP, NCI, 2024)
One block for each compound: values may come before it.

Tested on: K98450-129-R-PDC multicell spheroids, viability
Experiment: Anticancer human tumor K98450-129-R-PDC patient-derived colon adenocarcinoma cell line growth inhibition [PI3K]
Details: for IC50: curve of first compound; for viability, T/C: stronger effect = lower value
Method in brief: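 High-throughput combination screen: PI3K inhibitors crossed with targeted small molecules on complex spheroids of tumor cells, HUVEC and MSCs at 37 degrees C, 5% CO2. Top concentration was at or near clinical Cmax (otherwise 10 microM), with half-log decrements.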

[1] = second compound 0.0316 µM, first compound 0.000316 µM
[2] = second compound 0.0316 µM, first compound 0.001 µM
[3] = second compound 0.0316 µM, first compound 0.00316 µM
[4] = second compound 0.0316 µM, first compound 0.01 µM
[5] = second compound 0.0316 µM, first compound 0.0316 µM
[6] = second compound 0.0316 µM, first compound 0.1 µM
[7] = second compound 0.1 µM, first compound 0.000316 µM
[8] = second compound 0.1 µM, first compound 0.001 µM
[9] = second compound 0.1 µM, first compound 0.00316 µM
[10] = second compound 0.1 µM, first compound 0.01 µM
[11] = second compound 0.1 µM, first compound 0.0316 µM
[12] = second compound 0.1 µM, first compound 0.1 µM
[13] = second compound 0.316 µM, first compound 0.000316 µM
[14] = second compound 0.316 µM, first compound 0.001 µM
[15] = second compound 0.316 µM, first compound 0.00316 µM
[16] = second compound 0.316 µM, first compound 0.01 µM
[17] = second compound 0.316 µM, first compound 0.0316 µM
[18] = second compound 0.316 µM, first compound 0.1 µM
[19] = second compound 1 µM, first compound 0.000316 µM
[20] = second compound 1 µM, first compound 0.001 µM
[21] = second compound 1 µM, first compound 0.00316 µM
[22] = second compound 1 µM, first compound 0.01 µM
[23] = second compound 1 µM, first compound 0.0316 µM
[24] = second compound 1 µM, first compound 0.1 µM
[25] = second compound 3.16 µM, first compound 0.000316 µM
[26] = second compound 3.16 µM, first compound 0.001 µM
[27] = second compound 3.16 µM, first compound 0.00316 µM
[28] = second compound 3.16 µM, first compound 0.01 µM
[29] = second compound 3.16 µM, first compound 0.0316 µM
[30] = second compound 3.16 µM, first compound 0.1 µM
[31] = second compound 10 µM, first compound 0.000316 µM
[32] = second compound 10 µM, first compound 0.001 µM
[33] = second compound 10 µM, first compound 0.00316 µM
[34] = second compound 10 µM, first compound 0.01 µM
[35] = second compound 10 µM, first compound 0.0316 µM
[36] = second compound 10 µM, first compound 0.1 µM
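Further: spheroids exposed to agents for seven days before read-out.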

- IC50 (second compound 0.0316 µM): > 100 nM
- IC50 (second compound 0.1 µM): > 100 nM
- IC50 (second compound 0.316 µM): > 100 nM
- IC50 (second compound 1 µM): > 100 nM
- IC50 (second compound 3.16 µM): > 100 nM
- IC50 (second compound 10 µM): > 100 nM
SMILES: CC(=O)c1c(C)c2cnc(Nc3ccc(N4CCNCC4)cn3)nc2n(C2CCCC2)c1=O + Cc1nc(NC(=O)N2CCCC2C(N)=O)sc1-c1ccnc(C(C)(C)C(F)(F)F)c1
- viability, T/C [1]: 110%
- viability, T/C [2]: 101%
- viability, T/C [3]: 104%
- viability, T/C [4]: 104%
- viability, T/C [5]: 100%
- viability, T/C [6]: 97.9%
- viability, T/C [7]: 108%
- viability, T/C [8]: 95.2%
- viability, T/C [9]: 97.9%
- viability, T/C [10]: 93.7%
- viability, T/C [11]: 106%
- viability, T/C [12]: 98%
- viability, T/C [13]: 104%
- viability, T/C [14]: 107%
- viability, T/C [15]: 95.3%
- viability, T/C [16]: 93.3%
- viability, T/C [17]: 103%
- viability, T/C [18]: 99%
- viability, T/C [19]: 90%
- viability, T/C [20]: 92.9%
- viability, T/C [21]: 91.3%
- viability, T/C [22]: 89.7%
- viability, T/C [23]: 98.8%
- viability, T/C [24]: 95.9%
- viability, T/C [25]: 88.2%
- viability, T/C [26]: 86.8%
- viability, T/C [27]: 84.6%
- viability, T/C [28]: 86.3%
- viability, T/C [29]: 92.1%
- viability, T/C [30]: 86.3%
- viability, T/C [31]: 79.4%
- viability, T/C [32]: 74.6%
- viability, T/C [33]: 77.3%
- viability, T/C [34]: 79.8%
- viability, T/C [35]: 80.9%
- viability, T/C [36]: 70.3%

- IC50 (second compound 0.0316 µM): > 100 nM
- IC50 (second compound 0.1 µM): > 100 nM
- IC50 (second compound 0.316 µM): > 100 nM
- IC50 (second compound 1 µM): > 100 nM
- IC50 (second compound 3.16 µM): > 100 nM
- IC50 (second compound 10 µM): > 100 nM
SMILES: CC(C)n1nc(-c2ccc3oc(N)nc3c2)c2c(N)ncnc21 + Cc1nc(NC(=O)N2CCCC2C(N)=O)sc1-c1ccnc(C(C)(C)C(F)(F)F)c1
- viability, T/C [1]: 102%
- viability, T/C [2]: 97.8%
- viability, T/C [3]: 101%
- viability, T/C [4]: 91.2%
- viability, T/C [5]: 87.2%
- viability, T/C [6]: 75.3%
- viability, T/C [7]: 106%
- viability, T/C [8]: 95.3%
- viability, T/C [9]: 99.5%
- viability, T/C [10]: 91%
- viability, T/C [11]: 88.8%
- viability, T/C [12]: 79.9%
- viability, T/C [13]: 95.8%
- viability, T/C [14]: 99.5%
- viability, T/C [15]: 89.2%
- viability, T/C [16]: 90.2%
- viability, T/C [17]: 86.4%
- viability, T/C [18]: 72.3%
- viability, T/C [19]: 88.6%
- viability, T/C [20]: 89.5%
- viability, T/C [21]: 92.8%
- viability, T/C [22]: 80.2%
- viability, T/C [23]: 81.9%
- viability, T/C [24]: 70%
- viability, T/C [25]: 79.4%
- viability, T/C [26]: 78%
- viability, T/C [27]: 79.5%
- viability, T/C [28]: 70.8%
- viability, T/C [29]: 77.9%
- viability, T/C [30]: 61.2%
- viability, T/C [31]: 66.1%
- viability, T/C [32]: 70.9%
- viability, T/C [33]: 69.8%
- viability, T/C [34]: 71.9%
- viability, T/C [35]: 64.3%
- viability, T/C [36]: 59.2%
